Legend:
Blood = experiment: Inhibition of LPS-induced TNFalpha production in human whole blood after 1 hr by ELISA; type: functional, tissue-based
[1] = target: Disintegrin and metalloproteinase domain-containing protein 17 (Homo sapiens, UniProt P78536)
Disintegrin and metalloproteinase domain-containing protein 17, sequence (P78536 whole entry, the tested form may be a part): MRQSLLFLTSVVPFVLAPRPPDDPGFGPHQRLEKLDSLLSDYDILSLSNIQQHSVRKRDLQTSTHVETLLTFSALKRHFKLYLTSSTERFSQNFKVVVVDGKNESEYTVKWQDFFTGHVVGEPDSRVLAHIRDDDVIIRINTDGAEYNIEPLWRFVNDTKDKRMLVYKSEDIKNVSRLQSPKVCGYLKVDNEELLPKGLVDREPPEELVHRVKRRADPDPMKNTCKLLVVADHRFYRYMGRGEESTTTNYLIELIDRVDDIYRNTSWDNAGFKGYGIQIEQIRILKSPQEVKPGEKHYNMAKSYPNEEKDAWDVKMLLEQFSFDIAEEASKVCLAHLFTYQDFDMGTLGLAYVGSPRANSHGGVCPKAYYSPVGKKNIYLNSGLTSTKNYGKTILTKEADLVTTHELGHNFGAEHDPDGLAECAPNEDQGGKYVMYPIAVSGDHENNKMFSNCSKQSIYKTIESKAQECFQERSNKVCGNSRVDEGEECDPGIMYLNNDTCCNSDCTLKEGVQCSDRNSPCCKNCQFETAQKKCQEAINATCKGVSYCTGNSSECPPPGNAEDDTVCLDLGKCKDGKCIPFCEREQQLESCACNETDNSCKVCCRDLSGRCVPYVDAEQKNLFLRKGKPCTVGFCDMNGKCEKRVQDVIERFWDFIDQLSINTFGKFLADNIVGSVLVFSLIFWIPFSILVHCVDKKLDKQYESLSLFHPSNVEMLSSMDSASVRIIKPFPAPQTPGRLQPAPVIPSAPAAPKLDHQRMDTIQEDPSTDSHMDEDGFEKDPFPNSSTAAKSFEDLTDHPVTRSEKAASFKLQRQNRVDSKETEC
Description: Inhibition of TACE catalytic domain by FRET assay

SMILES	IC50 (Blood) [nM]	Ki [1] [nM]
O=C(NO)[C@H]1C[C@@]12CC(c1ccc(OCc3cc(C(F)(F)F)nc4ccccc34)cc1)NC2=O (mixture of isomers)	> 100	53
O=C(NO)[C@H]1C[C@@]12CC(c1ccc(OCc3cc(-c4cccnc4)nc4ccccc34)cc1)NC2=O (mixture of isomers)		32
O=C(NO)[C@H]1C[C@@]12CC(c1ccc(OCc3cc(-c4ccncc4)nc4ccccc34)cc1)NC2=O (stereo partly specified)		33
O=C(NO)[C@H]1C[C@@]12CC(c1ccc(OCc3cc(-c4ccccc4)nc4ccccc34)c(F)c1)NC2=O (mixture of isomers)	> 100	6.7
CN1C(=O)[C@@]2(CC1c1ccc(OCc3cc(-c4ccccc4)nc4ccccc34)c(F)c1)C[C@@H]2C(=O)NO (mixture of isomers)		137
CN1C(=O)[C@@]2(CC1c1ccc(OCc3cc(-c4ccccc4)nc4ccccc34)c(F)c1)C[C@@H]2C(=O)O (mixture of isomers)		94
COC(=O)[C@H]1C[C@@]12CC(c1ccc(OCc3cc(-c4ccccc4)nc4ccccc34)c(F)c1)N(C)C2=O (mixture of isomers)		> 50000
O=C(O)[C@H]1C[C@@]12CC(c1ccc(OCc3cc(-c4ccccc4)nc4ccccc34)cc1)NC2=O (mixture of isomers)	> 100	143
O=C(NO)[C@H]1C[C@@]12CC(c1ccc(OCc3cc(-c4ccccc4)nc4ccccc34)cc1)NC2=O (mixture of isomers)	> 100	30
Cc1cc(COc2ccc(C3C[C@@]4(C[C@@H]4C(=O)O)C(=O)N3)cc2)c2ccccc2n1 (mixture of isomers)		3070
O=C(O)[C@H]1C[C@@]12CC(c1ccc(OCc3cc(-c4ccccc4)nc4ccccc34)c(F)c1)NC2=O (mixture of isomers)	> 100	40
Cc1cc(COc2ccc(C3C[C@@]4(C[C@@H]4C(=O)NO)C(=O)N3)cc2)c2ccccc2n1 (stereo partly specified)		32
O=C(O)[C@H]1C[C@@]12CC(c1ccc(OCc3cc(-c4cccnc4)nc4ccccc34)cc1)NC2=O (mixture of isomers)		3220
O=C(O)[C@H]1C[C@@]12CC(c1ccc(OCc3cc(C(F)(F)F)nc4ccccc34)cc1)NC2=O (mixture of isomers)	> 100	2140
O=C(O)[C@H]1C[C@@]12CC(c1ccc(OCc3cc(-c4ccncc4)nc4ccccc34)cc1)NC2=O (mixture of isomers)		673
